“Also recorded” adds a separate entry of the source. Ends that are not written are not given here.
Experiments:
[1] = system: primary cultured cortical neurons treated with Aβ (1-43); test: Neuronal cell death induced by Aβ (1-43) peptide, WST-8 and calcein cell viability assays; assay type: cell-based, mouse
Description: (ii) Test of Neuronal Cell Death Induced by Aβ (1-43) Peptide
Mouse cortical neurons were primarily cultured on a poly-D-lysine-coated 96-well plate (Sumitomo Bakelite, Akita, Japan) in the absence of serum and the presence of N2 […] according to the previous report (Sudo et al., 2000, Mol. Cell. Neurosci., 16: 708-723). The purity of the neurons by this method was 98% or more. The prepared neurons (5.0×10^4 cells/well, 100 μl of medium/well) were cultured for 72 hours in the presence or absence of varying concentrations (100 aM, 1 fM, 10 fM, 100 fM, 1 pM, 10 pM, 100 pM, 1 nM, 10 nM, or 100 nM) of colivelin or AGA-C8R-HNG17 peptide. Since primary cultured neurons temporarily become fragile during medium replacement, the neurons were treated with 25 μM Aβ as follows: at first, a half volume (50 μl) of the old medium was discarded. Next, 50 μM Aβ and 50 μl of prewarmed fresh medium containing varying concentrations of colivelin or AGA-CBR-HNG17 peptides were added to the culture. Aβ (1-43) was purchased from Peptide Institute. The Aβ peptides used at the concentration of 25 μM for inducing neuronal cell death formed aggregation in the medium during 72-hour cell culture at 37° C. (Hashimoto Y, et al., 2001, J Neurosci 21: 9235-9245).
WST-8 cell viability assay was conducted with Cell Counting Kit-8 according to the previous report (Hashimoto Y, et al, 2001, Proc Natl Acad Sci USA 98: 6336-6341).
Calcein assay was conducted with calcein-AM (Dojindo, Kumamoto, Japan) according to the previous report (Hashimoto Y, et al., 2001, J Neurosci 21: 9235-9245).
These assays were simultaneously performed. After 72 hours of the Aβ treatment, the cells were added to a mixture of 10 μl of WST-8 solution and 1 μl of 600 μM calcein-AM and cultured at 37° C. for 2 hours in a CO2 incubator to measure a WST-8 absorption at O.D. 450. To decrease background, the medium was replaced by phosphate-buffered saline, followed by the measurement of calcein-specific fluorescence (excitation: 485 nm, emission: 535 nm) by fluorescence microcopy or with a spectrofluorometer (Wallac 1420 ARVOsx Multi Label Counter; Perkin Elmer, Wellesley, Mass., USA).

[2] = system: F11 cells transformed with M146L-PS1; test: M146L-PS1-induced neuronal cell death in the presence of ADNF, Trypan blue exclusion assay; assay type: cell-based, rat/mouse hybrid; conditions: for concentration completely suppressing M146L-PS1-induced cell death in the presence of ADNF: in the presence of 100 nM ADNF, 72 hours
Description: The protective effect of colivelin and ADNF used together against neuronal cell death induced by M146L-PS1 was examined. F11 cells were transformed with M146L-PS1 in the presence or absence of […] and treated with varying concentrations (100 aM, 1 fM, 10 fM, 100 fM, 1 pM, 10 pM, 100 pM, 1 nM, 10 nM, or 100 nM) of colivelin or AGA-C8R-HNG17.
After 72 hours of the transformation, cell mortality was measured by Trypan blue exclusion assay (FIG. 4). Approximately 50% of the neuronal cells died after the transformation with mutant PS1 gene, whereas only 10% of the untreated or empty vector-transformed cells died. […] When the M146L-PS1-transformed neuronal cells in the presence of 100 nM ADNF were treated with 10 pM colivelin, the neuronal cells died at a rate equal to that of the untreated (No) or empty vector (vec)-transformed cells.

G93A-SOD1 Tg mice = test: In vivo effect on ALS mice: onset, survival, rotarod (Example 5); parameters: species or system mouse
Description: Mice treated with a control (n=16), ADNF (n=15), AGA-C8R-HNG17 (n=14), or colivelin (n=13) were compared by the Kaplan-Meier life test. In addition, the average day of death was compared (FIG. 8c), wherein statistical analysis was conducted by one-way ANOVA, followed by Fischer's PLSD test (**p<0.01). The motor function was evaluated by a rotarod test (FIG. 8d). Mice icy-administered with a control (n=13), ADNF (n=14), AGA-C8R-HNG17 (n=14), or colivelin (n=12) were placed onto a rotating rod at a speed of 5 rpm and observed over max 420 seconds, wherein statistical analysis was conducted by repeatedly measured ANOVA and Fischer's PLSD test.
Cannulas were fixed under aseptic conditions to the left lateral ventricles of G93A-SOD1 Tg mice (ALS model mice, 70-day-old). Colivelin ([…] in 3 μl of saline per two days) was icy-injected through the cannulas to compare its protective effect with those of the same amount of ADNF and AGA-C8R-HNG17 (FIG. 8).
The 1-onset (FIG. 8a) and survival (FIG. 8b) of mice treated with a control (n=16), ADNF (n=15), AGA-C8R-HNG17 (n=14), or colivelin (n=13) were compared by the Kaplan-Meier life test. As a result, the colivelin-treated group completely delayed ALS onset up to approximately 114 days, as compared with the ADNF-treated group (approximately 106 days) and the AGA-C8R-HNG17-treated group (approximately 108 days). Regarding survival as well, the colivelin-treated group prolonged the life span of 100% of the mice up to approximately 145 days, as compared with the ADNF-treated group (approximately 133 days) and the AGA-CBR-HNG17-treated group (approximately 138 days). Average age at death was longest in the colivelin-treated mice and was approximately 153 days (FIG. 8c).
Additionally, the motor function was evaluated by the rotarod test (FIG. 8d). Mice treated with a control (n=13), ADNF (n=14), AGA-C8R-HNG17 (n=14), or colivelin (n=12) were placed onto a rotating rod at a speed of 5 rpm and observed over max 420 seconds, wherein statistical analysis was conducted by ANOVA and Fischer's PLSD test.

[3] = 10 μmol in 3 μl of saline per two days, icv
[4] = Aβ (1-43)-induced neuronal cell death

Sequence	concentration achieving complete protection ([1]; 25 μM Aβ (1-43), 72 hours) [fM]	concentration at or over which protective activity attenuated ([1]; Aβ (1-43) toxicity) [nM]	effect of ADNF itself on cell death ([2]; 100 nM ADNF alone)	ALS onset completely delayed up to (Kaplan-Meier) (G93A-SOD1 Tg mice; [3])	life span of 100% of the mice prolonged up to (Kaplan-Meier survival) (G93A-SOD1 Tg mice; [3])	EC50 ([1]; 25 μM Aβ (1-43), 72 hours, WST-8, read-out: concentration at which half of the neurons were rescued) [pM]	concentration completely suppressing M146L-PS1-induced cell death in the presence of ADNF [2] [pM]	potency relative to AGA-C8R-HNG17 [1, 4] [fold]	potency relative to HNG [1, 4]	protective activity at high concentration ([1]; at 100 nM)	activity level with 100 nM ADNF relative to that without ADNF ([2]; M146L-PS1, 10 pM with ADNF versus without)	average age at death (G93A-SOD1 Tg mice; [3])	motor function by rotarod test (G93A-SOD1 Tg mice; 5 rpm, max 420 seconds, icv treatment)
SALLRSIPA [ADNF, reference compound]	100	≥ 1	Neither general cell death nor M146L-PS1-induced neuronal cell death was affected	approximately 106 days	approximately 133 days	–	–	–	–	–	–	–	–
PAGASRLLLLTGEIDLP [AGA-C8R-HNG17, Pro-Ala-Gly-Ala-Ser-Arg-Leu-Leu-Leu-Leu-Thr-Gly-Glu-Ile-Asp-Leu-Pro, reference compound]	10000	–	–	approximately 108 days	approximately 138 days	1	10	–	–	–	–	–	–
SALLRSIPAPAGASRLLLLTGEIDLP [colivelin]	100	–	–	approximately 114 days	approximately 145 days	–	10	100	100,000 fold	did not disappear	1/100	approximately 153 days	ameliorated most; also recorded: significantly better
